What was measured:
hCB2 = target: T1, hCB2 (Homo sapiens, UniProt P34972); assay: Radioligand binding assay, CHO cells, hCB2
T1 construct: host or cells: CHO
Experimental: To define whether β–lactam derivative RGM8-51 could bind to CGRPR, CB2 and M3 receptors, in vitro binding assays were performed, using CHO cell lines transfected with these receptors. The degree of binding was determined by using specific radioligands for each receptor (Table 2, footnote).
These studies were subcontracted to Eurofins-CEREP or Eurofins-PANLABS. Briefly, agonists and antagonist assays were performed in cell cultures overexpressing the corresponding channel (CHO: TRPV1 and TRPA1; HEK293: TRPV3 and ASIC3). In vitro pharmacology, cellular channel functional assays: the compound was prepared in assay buffer to the final concentration, 10 μM. […] The agonist assay was conducted on fluorimeter instruments where the test compound, vehicle controls, and reference agonist were added to the assay plate after a fluorescence baseline was established. […] For the antagonist assay, the compound was pre-incubated for five minutes at room temperature, and then challenged with the EC80 concentration of the reference agonist after establishment of a fluorescence baseline. […] Binding assay results are expressed as a percent of control specific binding. […] Aqueous solubility (μM) was determined by comparing the peak area of the principal peak in a calibration standard (200 μM) containing organic solvent (methanol/water, 60/40, v/v) with the peak area of the corresponding peak in a buffer sample. […]

hTRPV1 = target: T2, hTRPV1 (Homo sapiens, UniProt Q8NER1); assay: hTRPV1 agonist assay (Ca2+ fluorimetry, CHO cells); type: cell-based; settings: 10 μM
T2 construct: host or cells: CHO
T2 sequence (Q8NER1 whole entry): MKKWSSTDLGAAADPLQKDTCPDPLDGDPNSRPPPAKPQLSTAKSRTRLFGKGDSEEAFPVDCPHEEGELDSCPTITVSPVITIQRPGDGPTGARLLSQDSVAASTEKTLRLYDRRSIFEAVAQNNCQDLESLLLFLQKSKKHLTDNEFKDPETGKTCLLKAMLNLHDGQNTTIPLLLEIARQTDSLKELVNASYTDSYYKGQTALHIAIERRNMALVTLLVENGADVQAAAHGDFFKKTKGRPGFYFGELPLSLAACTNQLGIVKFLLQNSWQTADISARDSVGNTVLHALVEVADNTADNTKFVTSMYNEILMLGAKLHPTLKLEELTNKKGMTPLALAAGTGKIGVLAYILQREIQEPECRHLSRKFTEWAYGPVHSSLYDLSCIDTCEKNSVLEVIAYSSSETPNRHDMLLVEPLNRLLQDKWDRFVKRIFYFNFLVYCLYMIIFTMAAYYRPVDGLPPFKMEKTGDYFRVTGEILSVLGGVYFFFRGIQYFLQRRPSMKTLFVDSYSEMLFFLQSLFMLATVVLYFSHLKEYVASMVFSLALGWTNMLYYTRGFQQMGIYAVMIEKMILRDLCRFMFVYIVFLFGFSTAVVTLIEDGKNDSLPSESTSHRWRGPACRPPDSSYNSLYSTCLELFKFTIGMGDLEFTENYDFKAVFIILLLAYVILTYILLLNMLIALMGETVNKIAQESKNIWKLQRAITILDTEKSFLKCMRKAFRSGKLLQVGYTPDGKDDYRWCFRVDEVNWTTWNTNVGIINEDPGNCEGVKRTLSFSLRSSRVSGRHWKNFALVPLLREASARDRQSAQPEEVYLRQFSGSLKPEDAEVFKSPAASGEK
Experimental: These studies were subcontracted to Eurofins-CEREP or Eurofins-PANLABS. Briefly, agonists and antagonist assays were performed in cell cultures overexpressing the corresponding channel (CHO: TRPV1 and TRPA1; HEK293: TRPV3 and ASIC3). In vitro pharmacology, cellular channel functional assays: the compound was prepared in assay buffer to the final concentration, 10 μM. The compound wells, reference agonist and background vehicle controls were prepared in DMSO at 0.3%. The reference agonist for each Ion Channel assayed was prepared in a similar manner to serve as the assay control. […] The agonist assay was conducted on fluorimeter instruments where the test compound, vehicle controls, and reference agonist were added to the assay plate after a fluorescence baseline was established. […] For the antagonist assay, the compound was pre-incubated for five minutes at room temperature, and then challenged with the EC80 concentration of the reference agonist after establishment of a fluorescence baseline. […] Binding assay results are expressed as a percent of control specific binding. […] Aqueous solubility (μM) was determined by comparing the peak area of the principal peak in a calibration standard (200 μM) containing organic solvent (methanol/water, 60/40, v/v) with the peak area of the corresponding peak in a buffer sample. […] The amount of compound in organic phase was calculated by subtraction. […]

T1 sequence (P34972 whole entry): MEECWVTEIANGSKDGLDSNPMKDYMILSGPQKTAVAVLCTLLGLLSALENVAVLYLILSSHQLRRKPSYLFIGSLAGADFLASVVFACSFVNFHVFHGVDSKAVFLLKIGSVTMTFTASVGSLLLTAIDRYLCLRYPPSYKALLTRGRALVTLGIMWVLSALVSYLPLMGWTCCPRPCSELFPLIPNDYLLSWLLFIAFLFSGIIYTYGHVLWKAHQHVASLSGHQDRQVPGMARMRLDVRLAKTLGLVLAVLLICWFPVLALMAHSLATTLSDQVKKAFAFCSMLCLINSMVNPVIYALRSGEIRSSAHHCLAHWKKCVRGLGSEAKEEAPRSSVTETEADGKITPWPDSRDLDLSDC

C[C@@H]1C(=O)N(C[C@H](Cc2ccccc2)N(Cc2ccccc2)Cc2ccccc2)[C@]1(Cc1ccccc1)C(=O)OC(C)(C)C [RGM8-51, 4(S)-Benzyl-3S-methyl-4-(tert-butoxy)carbonyl-1-[(2′S-dibenzylamino-3′-phenyl)prop-1′-yl]-2-oxoazetidine]
Binding hCB2 (%), inhibition of specific binding (hCB2; 10 μM, radioligand [3H]WIN 55212-2): did not show significant affinity | inhibition at 10 µM (hCB2; radioligand [3H]WIN 55212-2, read-out: Binding hCB2 (%), inhibition of specific binding): 7.3 ± 0.3% | hTRPV1 ago. (%) (hTRPV1): 31.3 ± 3.6%
